The record followed here is ChEMBL document CHEMBL1201862, “PubChem BioAssay data set” (2004).

A word on the AC50: it is the concentration giving half of the maximal activity seen. In general, EC50 refers to the concentration that produces a half-maximal response.

The target of assay [1] is T1, Mannose-6-phosphate isomerase (Homo sapiens, UniProt P34949).
T1 sequence (P34949 whole entry): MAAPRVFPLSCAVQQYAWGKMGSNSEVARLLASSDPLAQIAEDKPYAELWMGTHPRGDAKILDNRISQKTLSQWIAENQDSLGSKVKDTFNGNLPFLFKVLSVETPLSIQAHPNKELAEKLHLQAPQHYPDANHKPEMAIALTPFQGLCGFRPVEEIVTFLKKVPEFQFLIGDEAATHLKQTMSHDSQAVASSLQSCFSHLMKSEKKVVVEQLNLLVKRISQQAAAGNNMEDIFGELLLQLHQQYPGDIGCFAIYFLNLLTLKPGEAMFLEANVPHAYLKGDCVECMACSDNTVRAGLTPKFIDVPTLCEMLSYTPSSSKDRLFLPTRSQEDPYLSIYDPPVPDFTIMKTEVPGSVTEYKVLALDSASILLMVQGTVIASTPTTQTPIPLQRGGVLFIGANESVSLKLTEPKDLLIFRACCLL
As to the kind of experiment: MPI inhibition at elevated mannose 6-phosphate – biochemical, fluorescence intensity, high mannose 6-phosphate, primary screen (AID 1220).

Assay [2] concerns the target T2, Caspase-3 (Homo sapiens, UniProt P42574).
T2 sequence (P42574 whole entry): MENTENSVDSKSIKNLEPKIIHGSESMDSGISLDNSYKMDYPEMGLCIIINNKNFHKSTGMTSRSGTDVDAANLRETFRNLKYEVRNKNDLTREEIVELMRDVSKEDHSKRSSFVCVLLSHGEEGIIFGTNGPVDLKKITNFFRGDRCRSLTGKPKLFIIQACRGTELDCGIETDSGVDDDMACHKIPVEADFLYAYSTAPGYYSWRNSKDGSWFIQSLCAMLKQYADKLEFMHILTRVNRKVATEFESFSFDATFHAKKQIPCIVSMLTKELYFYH
Format: functional.

The target of assay [3] is T3, Sentrin-specific protease 7 (Homo sapiens, UniProt Q9BQF6).
T3 sequence (Q9BQF6 whole entry): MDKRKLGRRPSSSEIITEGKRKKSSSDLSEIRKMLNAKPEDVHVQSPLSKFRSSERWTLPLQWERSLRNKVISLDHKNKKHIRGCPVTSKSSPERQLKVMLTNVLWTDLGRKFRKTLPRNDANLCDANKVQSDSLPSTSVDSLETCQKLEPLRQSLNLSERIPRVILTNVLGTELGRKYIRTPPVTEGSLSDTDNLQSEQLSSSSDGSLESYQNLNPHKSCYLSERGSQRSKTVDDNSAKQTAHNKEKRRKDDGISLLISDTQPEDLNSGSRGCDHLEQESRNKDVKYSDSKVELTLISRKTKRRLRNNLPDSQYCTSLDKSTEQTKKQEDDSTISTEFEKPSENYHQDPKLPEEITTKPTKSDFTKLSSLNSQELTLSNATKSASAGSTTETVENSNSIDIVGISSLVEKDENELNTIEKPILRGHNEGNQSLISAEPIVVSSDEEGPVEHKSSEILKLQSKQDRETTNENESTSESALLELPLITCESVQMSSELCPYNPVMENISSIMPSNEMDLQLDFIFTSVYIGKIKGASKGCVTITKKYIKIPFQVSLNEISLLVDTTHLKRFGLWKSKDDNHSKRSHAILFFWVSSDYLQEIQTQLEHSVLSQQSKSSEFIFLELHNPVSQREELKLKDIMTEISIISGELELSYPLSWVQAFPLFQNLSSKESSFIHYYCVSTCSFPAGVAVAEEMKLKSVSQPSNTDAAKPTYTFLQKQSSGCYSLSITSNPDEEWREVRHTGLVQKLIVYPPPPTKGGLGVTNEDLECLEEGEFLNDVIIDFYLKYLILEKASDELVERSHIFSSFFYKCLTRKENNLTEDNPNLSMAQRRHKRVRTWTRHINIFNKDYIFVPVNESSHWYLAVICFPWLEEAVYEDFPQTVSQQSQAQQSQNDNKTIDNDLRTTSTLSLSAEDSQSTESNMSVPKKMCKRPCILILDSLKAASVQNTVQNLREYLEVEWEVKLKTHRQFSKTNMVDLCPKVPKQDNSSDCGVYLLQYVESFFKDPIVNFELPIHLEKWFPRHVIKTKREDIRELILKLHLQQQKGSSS
The class given is functional.

The target of assay [4] is T4, Sentrin-specific protease 6 (Homo sapiens, UniProt Q9GZR1).
T4 sequence (Q9GZR1 whole entry): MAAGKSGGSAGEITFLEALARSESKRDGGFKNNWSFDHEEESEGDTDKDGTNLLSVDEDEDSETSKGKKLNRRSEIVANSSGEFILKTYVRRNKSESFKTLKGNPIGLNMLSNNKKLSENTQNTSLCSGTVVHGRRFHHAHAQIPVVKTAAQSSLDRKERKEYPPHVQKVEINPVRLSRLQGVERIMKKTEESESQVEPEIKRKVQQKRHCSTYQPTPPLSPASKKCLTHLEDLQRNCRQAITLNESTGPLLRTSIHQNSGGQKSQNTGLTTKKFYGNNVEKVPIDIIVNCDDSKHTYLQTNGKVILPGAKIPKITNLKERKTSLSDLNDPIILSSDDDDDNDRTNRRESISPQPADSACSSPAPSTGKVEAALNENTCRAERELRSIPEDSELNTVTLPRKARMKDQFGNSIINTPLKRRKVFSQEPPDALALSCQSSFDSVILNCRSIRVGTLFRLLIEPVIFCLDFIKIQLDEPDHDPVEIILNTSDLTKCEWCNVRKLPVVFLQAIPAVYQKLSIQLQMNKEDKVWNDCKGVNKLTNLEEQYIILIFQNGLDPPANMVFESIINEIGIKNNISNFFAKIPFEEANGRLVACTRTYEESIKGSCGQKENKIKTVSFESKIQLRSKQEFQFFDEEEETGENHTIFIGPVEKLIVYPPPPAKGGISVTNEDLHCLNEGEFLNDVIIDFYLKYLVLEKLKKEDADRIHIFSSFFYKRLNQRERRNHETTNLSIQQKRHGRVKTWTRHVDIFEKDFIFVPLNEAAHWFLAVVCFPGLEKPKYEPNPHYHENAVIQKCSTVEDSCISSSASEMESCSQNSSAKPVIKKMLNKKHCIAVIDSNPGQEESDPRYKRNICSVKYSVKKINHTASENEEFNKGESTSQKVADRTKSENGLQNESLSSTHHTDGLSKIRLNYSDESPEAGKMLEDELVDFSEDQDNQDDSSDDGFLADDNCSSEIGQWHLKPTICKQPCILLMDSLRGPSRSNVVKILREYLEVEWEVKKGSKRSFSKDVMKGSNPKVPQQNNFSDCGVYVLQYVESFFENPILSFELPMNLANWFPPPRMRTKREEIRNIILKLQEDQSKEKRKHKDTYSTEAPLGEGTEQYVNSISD
Format: functional.

Assay [5] has as its target T5, Sentrin-specific protease 8 (Homo sapiens, UniProt Q96LD8).
T5 sequence (Q96LD8 whole entry): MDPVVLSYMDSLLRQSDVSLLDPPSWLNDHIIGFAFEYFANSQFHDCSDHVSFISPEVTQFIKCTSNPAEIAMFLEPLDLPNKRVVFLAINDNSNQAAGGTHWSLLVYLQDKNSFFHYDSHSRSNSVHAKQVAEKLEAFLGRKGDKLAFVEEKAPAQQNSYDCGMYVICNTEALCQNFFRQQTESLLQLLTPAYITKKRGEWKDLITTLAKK
The class given is functional.

The target in assay [6] is T5, Sentrin-specific protease 8. As to the kind of experiment: inhibition of human SENP8 cleavage activity – biochemical, luminescence, SAR follow-up (AID 504501). The class given is functional.
Assay [7] addresses T2, Caspase-3. As to the kind of experiment: SAR Analysis of small molecule inhibitors of Sentrin-specific proteases (SENPs) using a Caspase-3 Selectivity assay. [Related pubchem assays (depositor defined):AID2540, AID2599, AID434973, AID489001]. Format: functional.
Assay [8] addresses T4, Sentrin-specific protease 6. As to the kind of experiment: SAR Analysis of small molecule inhibitors of Sentrin-specific protease 6 (SENP6) using a Luminescent assay. [Related pubchem assays (depositor defined):AID2582, AID2599]. Format: functional.
The target in assay [9] is Dual specificity tyrosine-phosphorylation-regulated kinase 1A (Rattus norvegicus, UniProt Q63470). Format: biochemical, Homo sapiens.
Assay [10] deals with T3, Sentrin-specific protease 7. As to the kind of experiment: inhibition of human SENP7 cleavage activity – biochemical, luminescence, SAR follow-up (AID 504497). The class given is functional.
Assay [11] deals with T6, Polyadenylate-binding protein 1 (Homo sapiens, UniProt P11940). As to the kind of experiment: MLLE binding blockers, Cy5 peptide tracer – biochemical, fluorescence polarization, Cy5-PAM2 peptide, secondary, miRNA deadenylation inhibitor project, dose response (AID 602260). Particulars: read-out: IC50_Mean. The class given is functional. In general terms: Polarisation of emitted light reports the rotation of a fluorescent probe.

The target of assay [12] is T6, Polyadenylate-binding protein 1. Kind of assay: MLLE domain peptide-binding blockers, IC50 – biochemical, fluorescence polarization, FITC-PAM2 peptide, dose response (AID 602259). Format: functional. The following applies: read-out: IC50_Mean.
A short description of assay [13]: PKA-R1A complex activators, counter-screen titration – biochemical, Cy5-IP20 fluorescence polarization, 1536-well, triplicate, counter-screen for PKA-R2B activator project, dose response (AID 504896).
The nature of assay [14]: Fluorescence polarization-based biochemical high throughput dose response assay for activators of the Protein Kinase A-R2B (PKA-R2B) complex. [Related pubchem assays (depositor defined):AID504700, AID504704, AID504796, AID504797].
The next assay deals with Genome polyprotein (dengue virus type 2, UniProt P29990). Kind of assay: flavivirus cap methylation enzyme inhibition – biochemical, confirmation dose response, primary screen (AID 588689). Format: functional.
Assay [15] deals with Streptococcus sp. 'group A'. As to the kind of experiment: Streptococcus pyogenes SK(-)GAS viability under kanamycin – luminescence, BacTiterGlo, confirmation, counter-screen for streptokinase expression inhibitor project, dose response (AID 1900). Format: functional, organism-based. For orientation: A counterscreen serves to expose hits that act by an unwanted route or on another target.

A further assay concerns the target T7, Streptokinase A (Streptococcus pyogenes serotype M1, UniProt P10520).
T7 sequence (P10520 whole entry): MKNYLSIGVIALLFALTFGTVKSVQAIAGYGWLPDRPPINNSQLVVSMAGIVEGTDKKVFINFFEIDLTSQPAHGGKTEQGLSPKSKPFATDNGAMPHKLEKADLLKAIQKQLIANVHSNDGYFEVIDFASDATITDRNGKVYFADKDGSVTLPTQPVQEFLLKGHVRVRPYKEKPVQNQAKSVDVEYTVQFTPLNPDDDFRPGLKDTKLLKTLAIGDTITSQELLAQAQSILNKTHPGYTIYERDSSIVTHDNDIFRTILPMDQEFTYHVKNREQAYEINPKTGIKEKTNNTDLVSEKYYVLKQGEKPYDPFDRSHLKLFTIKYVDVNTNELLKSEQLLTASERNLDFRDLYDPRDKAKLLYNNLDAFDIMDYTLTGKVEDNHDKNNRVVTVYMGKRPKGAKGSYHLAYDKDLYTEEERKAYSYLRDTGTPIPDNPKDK
As to the kind of experiment: viability-normalized secreted streptokinase activity reduction – plasminogen activation absorbance, OD405, dose response (AID 1914).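 Also: secreted streptokinase activity via plasminogen activation per viability signal from cell pellet.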 Format: functional, Streptococcus pyogenes M1 GAS.

Another assay has as its system Streptococcus. Kind of assay: GAS UMAA2166 growth inhibition – luminescence, BacTiterGlo, counter-screen for streptokinase expression inhibitor project, dose response (AID 1915).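 Also: potency for reduction of bacterial viability or growth.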 Format: functional, organism-based.
In the next assay the target is T8, Bcl-2-like protein 10 (Homo sapiens, UniProt Q9HD36).
T8 sequence (Q9HD36 whole entry): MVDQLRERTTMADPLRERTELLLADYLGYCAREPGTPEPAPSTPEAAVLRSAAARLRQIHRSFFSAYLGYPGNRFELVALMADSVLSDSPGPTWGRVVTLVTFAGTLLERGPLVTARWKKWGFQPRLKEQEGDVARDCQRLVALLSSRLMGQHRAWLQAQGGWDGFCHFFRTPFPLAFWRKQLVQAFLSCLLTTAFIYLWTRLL
As to the kind of experiment: Isothermal titration calorimetry (ITC) with Bcl-B and compounds active in primary screen. [Related pubchem assays (depositor defined):AID1693]. Format: functional. In general terms: Isothermal titration calorimetry measures the heat released or taken up as one component is titrated into another.

Assay [16] deals with Dual specificity protein kinase CLK1 (Homo sapiens, UniProt P49759). Kind of assay: inhibition of human CLK1 activity – biochemical, cherry-picked samples, selectivity assay for Dyrk1A inhibitor project, dose response (AID 588811).

Calls of active or inactive are those of the source.

T6 sequence (P11940 whole entry): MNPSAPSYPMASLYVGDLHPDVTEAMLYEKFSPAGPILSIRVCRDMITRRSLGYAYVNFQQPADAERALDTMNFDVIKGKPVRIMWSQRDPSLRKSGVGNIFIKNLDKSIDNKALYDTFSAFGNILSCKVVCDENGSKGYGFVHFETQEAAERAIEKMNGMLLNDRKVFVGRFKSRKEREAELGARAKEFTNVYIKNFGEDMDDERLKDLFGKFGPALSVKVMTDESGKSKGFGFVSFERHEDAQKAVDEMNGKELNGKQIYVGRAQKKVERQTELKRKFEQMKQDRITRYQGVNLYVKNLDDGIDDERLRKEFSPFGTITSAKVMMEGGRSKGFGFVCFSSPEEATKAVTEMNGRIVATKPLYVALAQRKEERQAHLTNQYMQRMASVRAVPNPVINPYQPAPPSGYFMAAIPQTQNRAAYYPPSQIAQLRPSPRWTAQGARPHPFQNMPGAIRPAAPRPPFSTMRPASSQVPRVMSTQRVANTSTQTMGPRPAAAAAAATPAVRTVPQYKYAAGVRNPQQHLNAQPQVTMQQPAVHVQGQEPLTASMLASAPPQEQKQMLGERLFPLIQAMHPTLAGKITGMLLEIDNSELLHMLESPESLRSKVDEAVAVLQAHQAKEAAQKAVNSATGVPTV
Dual specificity protein kinase CLK1, sequence (P49759 whole entry): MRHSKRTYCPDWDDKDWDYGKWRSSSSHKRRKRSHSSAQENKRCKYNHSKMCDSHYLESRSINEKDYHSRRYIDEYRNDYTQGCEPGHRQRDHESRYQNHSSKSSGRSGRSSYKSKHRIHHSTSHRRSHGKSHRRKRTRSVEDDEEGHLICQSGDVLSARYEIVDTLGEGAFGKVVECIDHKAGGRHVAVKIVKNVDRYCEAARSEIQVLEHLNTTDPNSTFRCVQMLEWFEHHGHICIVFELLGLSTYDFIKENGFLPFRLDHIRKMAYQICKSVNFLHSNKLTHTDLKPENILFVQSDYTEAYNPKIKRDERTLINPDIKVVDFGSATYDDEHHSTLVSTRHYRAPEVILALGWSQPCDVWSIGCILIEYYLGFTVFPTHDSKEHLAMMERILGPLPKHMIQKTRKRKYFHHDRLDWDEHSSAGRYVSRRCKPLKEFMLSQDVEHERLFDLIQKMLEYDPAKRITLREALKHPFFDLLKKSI
Genome polyprotein, sequence (P29990 2492-3391 limits assumed): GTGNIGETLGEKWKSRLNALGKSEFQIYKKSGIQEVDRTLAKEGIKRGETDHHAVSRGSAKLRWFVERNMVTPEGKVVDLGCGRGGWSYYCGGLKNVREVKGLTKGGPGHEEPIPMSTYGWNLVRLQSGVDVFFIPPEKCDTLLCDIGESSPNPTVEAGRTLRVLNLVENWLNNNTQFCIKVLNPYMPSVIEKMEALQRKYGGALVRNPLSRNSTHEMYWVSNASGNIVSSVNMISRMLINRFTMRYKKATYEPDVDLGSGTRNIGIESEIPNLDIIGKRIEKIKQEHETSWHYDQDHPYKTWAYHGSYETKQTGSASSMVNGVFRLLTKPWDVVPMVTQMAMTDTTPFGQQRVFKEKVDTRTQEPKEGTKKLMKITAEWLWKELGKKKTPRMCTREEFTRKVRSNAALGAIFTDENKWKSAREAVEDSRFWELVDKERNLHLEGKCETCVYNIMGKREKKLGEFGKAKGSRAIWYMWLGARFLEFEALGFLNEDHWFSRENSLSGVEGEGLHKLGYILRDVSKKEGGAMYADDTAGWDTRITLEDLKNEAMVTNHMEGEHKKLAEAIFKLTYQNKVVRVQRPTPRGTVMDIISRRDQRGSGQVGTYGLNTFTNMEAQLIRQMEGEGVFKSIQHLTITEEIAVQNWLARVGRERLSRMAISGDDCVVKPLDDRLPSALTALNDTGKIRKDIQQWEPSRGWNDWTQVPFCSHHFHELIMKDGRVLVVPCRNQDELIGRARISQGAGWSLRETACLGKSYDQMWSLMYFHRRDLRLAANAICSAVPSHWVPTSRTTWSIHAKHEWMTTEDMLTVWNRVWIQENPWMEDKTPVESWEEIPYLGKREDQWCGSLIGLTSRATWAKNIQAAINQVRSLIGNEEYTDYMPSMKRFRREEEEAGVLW

Regarding `COc1ccc2c(C#N)c3ccccn3c2c1`, the IC50 in assay [1] is > 50 µM (not active); on Caspase-3 [2], 54.8 µM (active); in [3] it was > 100 µM (inactive); in assay [4] it was 16.6 µM (active); in assay [5], > 100 µM (inactive); in assay [6], > 99 µM (inactive). Besides, the IC50 at Caspase-3 [7] is 65.4 µM (active); in assay [8], > 99 µM (inactive); in assay [10], > 99 µM (inactive); in [11], > 66 µM (inactive); in assay [12], 21.2 µM (inactive). The AC50 in assay [9] is 0.242 µM (active).

For `CN(C)c1ccc(N=Nc2ccc(S(=O)(=O)O)cc2)c2ccccc12`, the figures for the EC50 in assay [13] and in assay [14] were > 114 µM (inactive) and 69 µM (inactive), respectively. Also, the IC50 at Genome polyprotein is 46.2 µM (active).

In the case of `O=c1c2c(n3nnnc3n1Cc1ccccc1)-c1ccccc1CC21CCCC1`, the EC50 is 26.3 µM (active) in assay [15], 6.74 µM (active) at Streptokinase A and > 150 µM (not active) in the assay with Streptococcus. Besides, on Bcl-2-like protein 10, the IC50 is 0.2 µM (active).

On to `CSCC(=O)Nc1nc(-c2ccc3c(c2)OCCO3)cs1`, for which the AC50 in assay [16] was 8.63 µM (active).
